Assays:
Assay type in all cases: in vivo
[1] = system: Kochia (Kochia scoparia); test: Test A preemergence; details: Bassia scoparia, pre-emergence, 240 h, Preemergence
Procedure, shortened: (§1)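 Each rating is a visual injury score from 0 to 100 given about 10 d after treatment, judged against untreated controls kept alongside in the greenhouse. In loam soil–sand blend, seeds got a preemergence directed soil spray, while postemergence plants were 2 to 10 cm tall at spraying.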

[2] = system: barnyardgrass (Echinochloa crus-galli); test: Test A preemergence; details: Echinochloa crus-galli, pre-emergence, 240 h, Preemergence
Procedure, shortened: as §1

[3] = system: giant foxtail (Setaria faberii); test: Test A preemergence; details: Setaria faberi, pre-emergence, 240 h, Preemergence
Procedure, shortened: as §1

[4] = system: pigweed (Amaranthus retroflexus); test: Test A preemergence; details: Amaranthus retroflexus, pre-emergence, 240 h, Preemergence
[5] = system: ragweed (common ragweed, Ambrosia elatior); test: Test A preemergence; details: Ambrosia artemisiifolia, pre-emergence, 240 h, Preemergence
Procedure, shortened: as §1

[6] = system: ryegrass, Italian (Italian ryegrass, Lolium multiflorum); test: Test A preemergence; details: Lolium multiflorum, pre-emergence, 240 h, Preemergence
Procedure, shortened: as §1

[7] = system: Galium (catchweed bedstraw, Galium aparine); test: Test A postemergence; details: Galium, post-emergence, 240 h, Postemergence, read-out: Plant response rating, Galium
Procedure, shortened: as §1

[8] = system: Kochia (Kochia scoparia); test: Test A postemergence; details: Bassia scoparia, post-emergence, 240 h, Postemergence, read-out: Plant response rating, Kochia
Procedure, shortened: as §1

[9] = system: barnyardgrass (Echinochloa crus-galli); test: Test A postemergence; details: Echinochloa crus-galli, post-emergence, 240 h, Postemergence, read-out: Plant response rating, Barnyardgrass
Procedure, shortened: as §1

[10] = system: blackgrass (Alopecurus myosuroides); test: Test A postemergence; details: Alopecurus myosuroides, post-emergence, 240 h, Postemergence, read-out: Plant response rating, Blackgrass
Procedure, shortened: as §1

[11] = system: corn (Zea mays); test: Test A postemergence; details: Zea mays, post-emergence, 240 h, Postemergence
Procedure, shortened: as §1

[12] = system: giant foxtail (Setaria faberii); test: Test A postemergence; details: Setaria faberi, post-emergence, 240 h, Postemergence, read-out: Plant response rating, Foxtail, Giant
Procedure, shortened: as §1

[13] = system: pigweed (Amaranthus retroflexus); test: Test A postemergence; details: Amaranthus retroflexus, post-emergence, 240 h, Postemergence, read-out: Plant response rating, Pigweed
Procedure, shortened: as §1

[14] = system: ragweed (common ragweed, Ambrosia elatior); test: Test A postemergence; details: Ambrosia artemisiifolia, post-emergence, 240 h, Postemergence, read-out: Plant response rating, Ragweed
Procedure, shortened: as §1

[15] = system: ryegrass, Italian (Italian ryegrass, Lolium multiflorum); test: Test A postemergence; details: Lolium multiflorum, post-emergence, 240 h, Postemergence, read-out: Plant response rating, Ryegrass, Italian
Procedure, shortened: as §1

[16] = system: wheat (Triticum aestivum); test: Test A postemergence; details: Triticum aestivum, post-emergence, 240 h, Postemergence, read-out: Plant response rating, Wheat
Procedure, shortened: as §1

[17] = system: barnyardgrass (Echinochloa crus-galli); test: Test B flooded paddy test; details: Echinochloa crus-galli, 250 g ai/ha, Flood; 0 to 100 scale where 0 is no effect and 100 is complete control; read-out: Barnyardgrass plant response rating
Procedure, shortened: (§2)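 Visual ratings (0 none to 100 complete control) are relative to untreated plants, taken 13–15 d after treatment in a greenhouse. Test material went straight into floodwater standing 3 cm above the soil, kept constant, on plants at the 2-leaf stage.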

[18] = system: ducksalad (Heteranthera limosa); test: Test B flooded paddy test; details: Heteranthera limosa, 250 g ai/ha, Flood; 0 to 100 scale where 0 is no effect and 100 is complete control; read-out: Ducksalad plant response rating
Procedure, shortened: as §2

[19] = system: rice (Oryra sativa); test: Test B flooded paddy test; details: Oryza sativa, 250 g ai/ha, Flood; 0 to 100 scale where 0 is no effect and 100 is complete control; read-out: Rice plant response rating
Procedure, shortened: as §2

[20] = system: sedge, umbrella (small-flower umbrella sedge, Cyperus difformis); test: Test B flooded paddy test; details: Cyperus difformis, 250 g ai/ha, Flood; 0 to 100 scale where 0 is no effect and 100 is complete control; read-out: Sedge, Umbrella plant response rating
Procedure, shortened: as §2

[21] = 125 g ai/ha, visual injury after approximately 10 d, 0 to 100 scale where 0 is no effect and 100 is complete control
[22] = 31 g ai/ha, visual injury after approx. 10 d, 0 to 100 scale, 0 no effect, 100 complete control

CN1CC[C@H](c2ccccc2C(F)(F)F)[C@@H](C(=O)Nc2cccc(F)c2F)C1=O [Compound 1009]
0%: pest or weed control at 31 g/ha ([1]; 31 g ai/ha, 0 to 100 scale where 0 is no effect and 100 is complete control, read-out: Kochia plant response rating) | pest or weed control at 125 g/ha ([1]; 125 g ai/ha, visual injury rating after approximately 10 d, read-out: Kochia plant response rating (0 to 100 scale, 0 is no effect, 100 is complete control)) | pest or weed control at 125 g/ha ([2]; 125 g ai/ha, visual injury rating after approximately 10 d, read-out: Barnyardgrass plant response rating (0 to 100 scale, 0 is no effect, 100 is complete control)) | pest or weed control at 31 g/ha ([2]; 31 g ai/ha, 0 to 100 scale (0 no effect, 100 complete control), read-out: Plant response rating, Barnyardgrass) | pest or weed control at 125 g/ha ([3]; 125 g ai/ha, visual injury rating after approximately 10 d, read-out: Foxtail, Giant plant response rating (0 to 100 scale, 0 is no effect, 100 is complete control)) | pest or weed control at 31 g/ha ([3]; 31 g ai/ha, 0 to 100 scale (0 no effect, 100 complete control), read-out: Plant response rating, Foxtail, Giant) | pest or weed control at 31 g/ha ([4]; 31 g ai/ha, 0 to 100 scale where 0 is no effect and 100 is complete control, read-out: Pigweed plant response rating) | pest or weed control at 125 g/ha ([4]; 125 g ai/ha, visual injury rating after approximately 10 d, read-out: Pigweed plant response rating (0 to 100 scale, 0 is no effect, 100 is complete control)) | pest or weed control at 31 g/ha ([5]; 31 g ai/ha, 0 to 100 scale where 0 is no effect and 100 is complete control, read-out: Ragweed plant response rating) | pest or weed control at 125 g/ha ([5]; 125 g ai/ha, visual injury rating after approximately 10 d, read-out: Ragweed plant response rating (0 to 100 scale, 0 is no effect, 100 is complete control)) | pest or weed control at 31 g/ha ([6]; 31 g ai/ha, 0 to 100 scale where 0 is no effect and 100 is complete control, read-out: Ryegrass, Italian plant response rating) | pest or weed control at 125 g/ha ([6]; 125 g ai/ha, visual injury rating after approximately 10 d, read-out: Ryegrass, Italian plant response rating (0 to 100 scale, 0 is no effect, 100 is complete control)) | pest or weed control at 125 g/ha [7, 21] | pest or weed control at 31 g/ha [7, 22] | pest or weed control at 125 g/ha [8, 21] | pest or weed control at 31 g/ha [8, 22] | pest or weed control at 125 g/ha [9, 21] | pest or weed control at 31 g/ha [9, 22] | pest or weed control at 125 g/ha [10, 21] | pest or weed control at 31 g/ha [10, 22] | Corn plant response rating (crop injury, 0 = no effect, 100 = complete kill) at 125 g/ha [11, 21] | Corn plant response rating (crop injury, 0 = no effect, 100 = complete kill) at 31 g/ha [11, 22] | pest or weed control at 125 g/ha [12, 21] | pest or weed control at 31 g/ha [12, 22] | pest or weed control at 125 g/ha [13, 21] | pest or weed control at 31 g/ha [13, 22] | pest or weed control at 125 g/ha [14, 21] | pest or weed control at 31 g/ha [14, 22] | pest or weed control at 125 g/ha [15, 21] | pest or weed control at 31 g/ha [15, 22] | plant injury at 125 g/ha [16, 21] | plant injury at 31 g/ha [16, 22] | pest or weed control at 250 g/ha [17] | pest or weed control at 250 g/ha [18] | pest or weed control at 250 g/ha [19] | pest or weed control at 250 g/ha [20]
